Results published in US20100330070A1, “Methods Of Making An Antibody And Compositions Thereof” (priority 2009, published 2010).

Columns and labels:
LL-37 [1] = experiment: LL-37 expression by OBA9 cells with Sepharose-coupled benzoic acid isomers; type: cell-based, human; settings: isomer coupled to NHS-activated Sepharose gel with EDC
Excerpt: In order to investigate the structure-function relationship underlying EGCG-mediated induction of LL-37 from human gingival epithelial cell line OBA9, different isomers of benzoic acids are examined for their effects on the LL-37 expression by OBA9 cells. Each isomer of benzoic acids is coupled to NHS-activated Sepharose gel (Pierce) using a cross-linker, 1-Ethyl-3-[3-dimethylaminopropyl]carbodiimide (EDC, Pierce). The isomers of benzoic acids include 1) 2,6-di-hydroxy benzoic acid, 2) 2,3,4-tri-hydroxy benzoic acids, 3) 3,4,5-tri-hydroxy benzoic acids, and 4) 2,4,6-tri-hydroxy benzoic acids.

hBD2 mRNA [2] = experiment: hBD2 mRNA expression in human gingival epithelial cell line OBA9; type: cell-based; settings: OBA9 cells, 4-hour exposure, 0.1, 1.0 and 10 ug/ml
Experimental: (§1) Both LL-37 and hBD2 mRNA expression in OBA9 cells are induced after a 4-hour exposure to green tea polyphenol extract, Teaflan 90S (EGCG 50%, ECG 13%), and purified EGCG (95% pure, SIGMA) at concentrations of 0.1, 1.0 and 10 ug/ml. EGCG increases the production of LL-37 and hBD2 at the mRNA level in the human gingival epithelial cell line OBA9 (FIG. 1) as well as the human lung carcinoma cell line A549.

LL-37 mRNA [3] = experiment: RT-PCR of LL-37 mRNA in cheek epithelial cells after mouthwash; type: in vivo, human; settings: mouthwash with 40 ug/ml, after 5 minutes
Excerpt: (§2) Cheek epithelium is utilized for monitoring LL-37 mRNA and protein expression to determine if Trihydroxybenzoate Derivatives of the Invention can induce LL-37 in vivo. […] The isolated cheek cells are also subjected to Western blot analysis for protein expression of LL-37 by cheek epithelium using anti-LL-37 monoclonal antibody. The expression of both the proform (18 kD, also termed as hCAP18) and secreted form (4.5 kD) of LL-37 (12) in cheek epithelial cells is induced by Trihydroxybenzoate Derivatives of the Invention (e.g., EGCG (95% SIGMA), or by EGCG (90% Teavigo)).

LL-37 mRNA [4] = experiment: LL-37 mRNA level in human lung carcinoma cell line A549; type: cell-based; settings: A549 cells
Experimental: as §1

LL-37 [5] = experiment: Western blot of LL-37 protein in cheek epithelial cells; type: in vivo, human; settings: Western blot with anti-LL-37 monoclonal antibody
Excerpt: as §2

hBD2 mRNA [6] = experiment: hBD2 mRNA level in human lung carcinoma cell line A549; type: cell-based; settings: A549 cells
Experimental: as §1

LL-37 mRNA [7] = experiment: LL-37 mRNA expression in human gingival epithelial cell line OBA9; type: cell-based; settings: OBA9 cells, 4-hour exposure, 0.1, 1.0 and 10 ug/ml
Experimental: as §1

[8] = tested on: Actinobacillus actinomycetemcomitans Y4; experiment: Bactericidal effect of culture supernatant of treated OBA9 cells; type: cell-based; settings: supernatant of OBA9 treated at 20 ug/ml; compared with non-treated, catechin- and 2,4-dihydroxy benzoic acid-treated supernatant
Experimental: The culture supernatant isolate from OBA9 is treated with 1) EGCG, 2) catechin, 3) 2,4-dihydroxy benzoic acid, and 4) 3,4,5-tri-hydroxy benzoic acid (20 ug/ml, respectively) and examined for their bactericidal effects on Actinobacillus actinomycetemcomitans Y4 (Aa Y4).

LL-37 [9] = experiment: ELISA of LL-37 induction from OBA9 cells; type: cell-based, human; settings: for induction of LL-37 (ELISA): 20 ug/ml; for induction of LL-37 expression: in the absence of EGCG
Experimental: (§3) Using ELISA systems to detect LL-37 (Forsyth in-house) and hBD2 (Peprotech), 33 natural compounds (20 ug/ml) are examined for their ability to induce LL-37 and hBD2 from OBA9 cells. Although the sensitivity of the hBD2 ELISA is higher than that of LL-37 ELISA (10 pg/ml vs 1 ng/ml, respectively), the induction of LL-37 is more prominent than hBD2 (FIG. 2 A&B, LL-37; C&D, hBD2). […] Bactericidal effects of LL-37 and hBD2 are, in general, potent.
The Trihydroxybenzoate Derivatives of the Invention and rosemarinic acid, courmarin, catechin gallate, epicatechin gallate, epigallocatechin, and tannic acid are tested to induce LL-37 from OBA9 cells in the absence of EGCG.

hBD2 = experiment: ELISA of hBD2 induction from OBA9 cells; type: cell-based, human; settings: 20 ug/ml
Experimental: as §3

O=C(O)c1ccc(O)c(O)c1O [2,3,4-tri-hydroxy benzoic acids, 2,3,4-trihydroxybenzoic acid]
induction of LL-37 expression by OBA9 cells (LL-37 [1]): show the induction

O=C(O)c1c(O)cc(O)cc1O [2,4,6-tri-hydroxy benzoic acids]
induction of LL-37 expression by OBA9 cells (LL-37 [1]): not

O=C(O)c1c(O)cccc1O [2,6-di-hydroxy benzoic acids, 2,6-di-hydroxy benzoic acid]
induction of LL-37 expression by OBA9 cells (LL-37 [1]): not

O=C(O[C@@H]1Cc2c(O)cc(O)cc2O[C@@H]1c1cc(O)c(O)c(O)c1)c1cc(O)c(O)c(O)c1 [EGCG]
hBD2 mRNA expression (hBD2 mRNA [2]): induced | LL-37 mRNA expression by cheek epithelial cells (LL-37 mRNA [3]): up-regulated | production of LL-37 at the mRNA level (LL-37 mRNA [4]): increases | expression of proform (18 kD) and secreted form (4.5 kD) of LL-37 in cheek epithelial cells (LL-37 [5]): induced | production of hBD2 at the mRNA level (hBD2 mRNA [6]): increases | LL-37 mRNA expression (LL-37 mRNA [7]): induced | bactericidal effects of culture supernatant on Aa Y4 [8]: more bactericidal effects than control

CCCCCCCCCCCCCC(=O)O[C@@H]1[C@@H](C)[C@@]2(O)[C@@H](C=C(CO)C[C@]3(O)C(=O)C(C)=C[C@@H]23)[C@@H]2C(C)(C)[C@]12OC(C)=O [PMA]
induction of LL-37 (ELISA) (LL-37 [9]): induced | induction of hBD2 (ELISA) (hBD2): minimal induction activities

O=C(/C=C/c1ccc(O)c(O)c1)O[C@H](Cc1ccc(O)c(O)c1)C(=O)O [Rosemarinic acid]
induction of LL-37 expression (LL-37 [9]): little or no induction

O=c1ccc2ccccc2o1 [courmarin]
induction of LL-37 expression (LL-37 [9]): little or no induction

O=C(O)c1cc(O)c(O)c(O)c1 [gallic acid, 3,4,5-trihydroxybenzoic acid]
induction of LL-37 expression (LL-37 [9]): more potent than 3,4,-dihydroxy benzoate | induction of LL-37 expression by OBA9 cells (LL-37 [1]): show the induction | bactericidal effects of culture supernatant on Aa Y4 [8]: more bactericidal effects than control

Poly IC
induction of LL-37 (ELISA) (LL-37 [9]): induced | induction of hBD2 (ELISA) (hBD2): minimal induction activities
